9 compounds from ChEMBL document CHEMBL1157495 (Bioorg Med Chem Lett, 2008) can be followed below.

Where only a bound is given, the exact number is not on record here.

In experiment [1] the test system is Plasmodium berghei. In words: (§1) Antimalarial activity after 10 days against Plasmodium berghei ANKA infected Anopheles stephensi at 10 uM/kg. The class given is functional.
Experiment [2] has as its system Plasmodium berghei. Described as §1. Format: functional. The source holds these as a separate data set.
For another experiment, the system named is Plasmodium falciparum. Kind of experiment: Antiplasmodial activity against chloroquine-resistant Plasmodium falciparum W2. Format: functional, organism-based.
The subject of experiment [3] is Plasmodium berghei. In words: (§2) Antimalarial activity after 10 days against Plasmodium berghei ANKA infected Anopheles stephensi at 50 uM/kg. The class given is functional.
Experiment [4] has as its system Plasmodium berghei. The experiment is described as §2. Format: functional. This is another data set of the same source.

As for `COc1cc(NC(C)CCCN2C(=O)CN(C(=O)[C@H](C)N)C2(C)C)c2ncccc2c1` (stereo partly drawn), the Activity in the experiment with Plasmodium berghei [1] is 9.71; in the experiment with Plasmodium berghei [2] it was 67.9%; in the experiment on Plasmodium berghei [3] it was 1.34; in the experiment on Plasmodium berghei [4] it was 40.1%. Further, in the experiment on Plasmodium falciparum, half-maximal inhibition (IC50) required 8 µM.

For the compound `COc1cc(NC(C)CCCN)c2ncccc2c1` (stereo not drawn) [PRIMAQUINE], the Activity in the experiment with Plasmodium berghei [1] came out at 2; with Plasmodium berghei [2] it was 41.7%; in the experiment with Plasmodium berghei [3], 0.95; in the experiment on Plasmodium berghei [4], 42.9%.

`COc1cc(NC(C)CCCN2C(=O)[C@H](C)N(C(=O)CN)C2(C)C)c2ncccc2c1` (stereo partly drawn) returned an IC50 with Plasmodium falciparum of 5.5 µM.

In the case of `COc1cc(NC(C)CCCN2C(=O)[C@H](CCSC)N(C(=O)CN)C2(C)C)c2ncccc2c1` (stereo partly drawn), the IC50 with Plasmodium falciparum amounted to 3.3 µM.

`COc1cc(NC(C)CCCN2C(=O)CN(C(=O)CN)C2(C)C)c2ncccc2c1` (stereo not drawn): the Activity with Plasmodium berghei [1] turned out to be 1.08; with Plasmodium berghei [2] it was 42%; in the experiment with Plasmodium berghei [3], 0.79.

With `COc1cc(NC(C)CCCN2C(=O)CN(C(=O)[C@@H](N)CC(C)C)C2(C)C)c2ncccc2c1` (stereo partly drawn), in the experiment with Plasmodium falciparum, the half-inhibitory concentration (IC50) came to 6.3 µM.

Turning to `COc1cc(NC(C)CCCN2C(=O)[C@H](C)NC2(C)C)c2ncccc2c1` (stereo partly drawn), the concentration for half-maximal inhibition (IC50) in the experiment with Plasmodium falciparum was more than 50 µM.

Consider `COc1cc(NC(C)CCCN2C(=O)CN(C(=O)[C@@H](N)CCSC)C2(C)C)c2ncccc2c1` (stereo partly drawn), for which it took 12 µM to reach half-maximal inhibition with Plasmodium falciparum (IC50).

Compound `COc1cc(NC(C)CCCN2C(=O)CN(C(=O)[C@@H](N)C(C)C)C2(C)C)c2ncccc2c1` (stereo partly drawn) registered an IC50 in the experiment with Plasmodium falciparum of 7.9 µM.

One may read the IC50 as the concentration that gives 50% inhibition. A high value points to a need for much substance.
